Measured values as given in US20220096411A1, “COMBINING METABOLIC STIMULATION AND AMINO ACIDS TO SENSITIZE TOLERANT BACTERIA TO ANTIBIOTICS” (priority 2019, published 2022).

What was measured:
[1] = system: Escherichia coli K12 strain MG1655; assay: Killing assay (CFU) of tolerant stationary phase cultures; format: cell-based; conditions: for ability of individual carbon source to restore β-lactam antibiotic sensitivity (CFU/mL): tolerant cultures grown in 100% LB medium, FIG. 5
[2] = system: Escherichia coli K12 strain MG1655; assay: MIC determination (metabolite-enabled MIC from optical density dose-response); format: cell-based; conditions: for change of ampicillin MIC on amino acid supplementation: across all tested growth-supporting metabolites (carbon sources), FIG. 2B; for metabolite-enabled MIC of β-lactams upon metabolite supplementation: ampicillin, carbenicillin, mecillinam, penicillin, 1% LB; for metabolite-enabled MIC of β-lactams upon metabolite supplementation / metabolite-enabled MIC, D-isomer compared with L-isomer: metabolite 10 mM; for metabolite-enabled MIC, D-isomer compared with L-isomer: β-lactams of FIG. 1B; for potentiation of the antibiotic by D-amino acids: with pyruvate (FIG. 2E) or without metabolic stimulant (FIG. 2F), ampicillin potentiated, comparators D-cycloserine, ciprofloxacin, gentamicin are the non-β-lactams
[3] = system: E. coli genetic knockout ΔdadA; assay: Ampicillin sensitization of knockout strain unable to catabolize D-alanine into pyruvate; format: cell-based, Escherichia coli; conditions: FIG. 2A; for sensitivity of tolerant ΔdadA bacteria to ampicillin on amino acid supplementation alone: no pyruvate; for potentiation of ampicillin sensitivity of ΔdadA strain by amino acid: strain supplemented with pyruvate
[4] = system: clinical isolate of Escherichia coli (isolate DICON-146); assay: Killing assay, ampicillin-resistant ESBL clinical isolate in stationary phase; format: cell-based; conditions: D-methionine added on top of sulbactam and pyruvate; FIG. 3C
[5] = system: Escherichia coli K12 strain MG1655; format: cell-based

Compound: C[C@@H](N)C(=O)O [D-alanine]
- performance of metabolite in sensitizing cultures to ampicillin (CFU confirmed cell death) ([1]; cultures treated with ampicillin and metabolite, FIG. 1A): strong
- change of ampicillin MIC on amino acid supplementation [2]: consistently lowered the ampicillin MIC
- metabolite-enabled MIC of β-lactams upon metabolite supplementation ([2]; FIG. 1B): lowest observed MICs
- metabolite-enabled MIC, D-isomer compared with L-isomer [2]: outperformed their corresponding L-isomers
- sensitivity of tolerant ΔdadA bacteria to ampicillin on amino acid supplementation alone [3]: equally insensitive to ampicillin
- potentiation of ampicillin sensitivity of ΔdadA strain by amino acid [3]: potentiate sensitivity to ampicillin

Compound: N[C@@H]1CONC1=O [D-cycloserine, reference compound]
- potentiation of the antibiotic by D-amino acids [2]: specific to β-lactam antibiotics

Compound: CSCC[C@@H](N)C(=O)O [D-methionine]
- sensitization of stationary phase MG1655 to ampicillin in MOPS-rich medium ([1]; MOPS-rich medium, D-methionine added on top of pyruvate, FIG. 3A): further potentiated ampicillin
- observed effect size of D-amino acid on β-lactam MIC ([2]; FIG. 1B, FIG. 2C): larger than for D-alanine
- restoration of ampicillin sensitivity of resistant (ESBL) E. coli in stationary phase [4]: further potentiated killing by lower drug concentrations
- effect of D-methionine on population density (CFU) ([5]; used alone or in combination with xylose, FIG. 7B): did not increase population density

Compound: O=C(O)[C@H]1CCCN1 [D-proline]
- change of ampicillin MIC, D-amino acid compared with L-isomer ([2]; cultures sensitized with pyruvate, alanine pair in dadA mutant, FIG. 2C): less robust than for other D-amino acids

Compound: N[C@H](CO)C(=O)O [D-serine]
- metabolite-enabled MIC of β-lactams upon metabolite supplementation ([2]; FIG. 1B): lowest observed MICs
- metabolite-enabled MIC, D-isomer compared with L-isomer [2]: outperformed their corresponding L-isomers

Compound: C[C@H](N)C(=O)O [L-alanine]
- change of ampicillin MIC on amino acid supplementation [2]: did not
- sensitivity of tolerant ΔdadA bacteria to ampicillin on amino acid supplementation alone [3]: equally insensitive to ampicillin
- potentiation of ampicillin sensitivity of ΔdadA strain by amino acid [3]: no such potentiation was observed

Compound: CC1(C)S[C@@H]2[C@H](NC(=O)[C@H](N)c3ccccc3)C(=O)N2[C@H]1C(=O)O [ampicillin, reference compound]
- killing of stationary phase cultures by the antibiotic alone ([1]; 24 hour treatment with 1 mg/ml ampicillin, cultures grown in LB 24 hours, FIG. 1A): not killed
- potentiation of the antibiotic by D-amino acids [2]: specific to β-lactam antibiotics

Compound: O=C[C@@H](O)[C@H](O)[C@H](O)CO [arabinose]
- ability of individual carbon source to restore β-lactam antibiotic sensitivity (CFU/mL) [1]: varying abilities to restore β-lactam antibiotic sensitivity

Compound: O=C(CO)[C@@H](O)[C@H](O)[C@H](O)CO [fructose]
- ability of individual carbon source to restore β-lactam antibiotic sensitivity (CFU/mL) [1]: varying abilities to restore β-lactam antibiotic sensitivity

Compound: O=C(O)[C@H](O)[C@@H](O)[C@H](O)[C@H](O)CO [gluconate]
- ability of individual carbon source to restore β-lactam antibiotic sensitivity (CFU/mL) [1]: varying abilities to restore β-lactam antibiotic sensitivity

Compound: OCC(O)CO [glycerol]
- ability of individual carbon source to restore β-lactam antibiotic sensitivity (CFU/mL) [1]: varying abilities to restore β-lactam antibiotic sensitivity

Compound: OC[C@@H](O)[C@@H](O)[C@H](O)[C@H](O)CO [mannitol]
- ability of individual carbon source to restore β-lactam antibiotic sensitivity (CFU/mL) [1]: varying abilities to restore β-lactam antibiotic sensitivity

Compound: CCN1CCN(C(=O)N[C@@H](C(=O)N[C@@H]2C(=O)N3[C@@H]2SC(C)(C)[C@@H]3C(=O)O)c2ccccc2)C(=O)C1=O [piperacillin, reference compound]
- sensitization of tolerant bacteria to the antibiotic ([1]; metabolic stimulation by pyruvate and potentiation by D-amino acids, FIG. 2G): sensitized tolerant bacteria

Compound: CC1(C)[C@H](C(=O)O)N2C(=O)C[C@H]2S1(=O)=O [sulbactam, reference compound]
- restoration of ampicillin sensitivity of resistant (ESBL) E. coli in stationary phase [4]: unable to restore sensitivity to ampicillin

Compound: O=C[C@H](O)[C@@H](O)[C@H](O)CO [xylose]
- ability of individual carbon source to restore β-lactam antibiotic sensitivity (CFU/mL) [1]: varying abilities to restore β-lactam antibiotic sensitivity
- effect of carbon source on growth and population density (CFU) ([5]; cultures grown in 1% LB medium, 10 mM, no antibiotic, FIG. 7A right): did stimulate growth and an increase in population density
- effect of carbon source on population density (CFU) ([5]; cultures grown in 100% LB medium, 10 mM, no antibiotic, FIG. 7A left): did not lead to an increase in population density

Compound: gentamicin [reference compound]
- potentiation of the antibiotic by D-amino acids [2]: specific to β-lactam antibiotics
